Laboratory results reported in the NIST ThermoML archive (doi:10.1016/j.jct.2009.10.009).
“And” between values parts separate entries of the source, which are not always exact repeats. Equal entries are not always repeated.

Conditions: Crystal, Calculated from knudsen effusion weight loss

CC(C)(C)c1cc(C=O)c(O)c(C(C)(C)C)c1 [3,5-di-tert-butyl-2-hydroxybenzaldehyde]
Conditions	vapor or sublimation pressure
296.28 K	0.000151 kPa and 0.000143 kPa and 0.00014 kPa
298.16 K	0.000193 kPa and 0.00018 kPa and 0.000176 kPa
300.17 K	0.000248 kPa and 0.000237 kPa and 0.000234 kPa
302.18 K	0.000304 kPa and 0.0003 kPa and 0.000322 kPa
304.15 K	0.000408 kPa and 0.000382 kPa and 0.000378 kPa
306.37 K	0.000542 kPa and 0.000514 kPa and 0.000505 kPa
308.18 K	0.000673 kPa and 0.000631 kPa and 0.00062 kPa
310.17 K	0.000861 kPa and 0.000812 kPa and 0.000801 kPa
312.2 K	0.001099 kPa and 0.001032 kPa and 0.001014 kPa

O=Cc1cccc(O)c1 [3-hydroxybenzaldehyde]
Conditions	vapor or sublimation pressure
312.17 K	0.000139 kPa and 0.000134 kPa and 0.000131 kPa
314.2 K	0.000177 kPa and 0.000171 kPa and 0.000168 kPa
316.2 K	0.000233 kPa and 0.00022 kPa and 0.000216 kPa
318.19 K	0.00028 kPa and 0.000275 kPa and 0.000288 kPa
320.18 K	0.000377 kPa and 0.000358 kPa and 0.000353 kPa
322.2 K	0.000462 kPa and 0.000453 kPa and 0.00044 kPa
324.17 K	0.000581 kPa and 0.000557 kPa and 0.000542 kPa
326.22 K	0.000738 kPa and 0.000712 kPa and 0.000694 kPa
328.18 K	0.000907 kPa and 0.000871 kPa and 0.000849 kPa
330.19 K	0.001139 kPa and 0.00109 kPa and 0.001058 kPa

O=Cc1ccc(O)cc1 [4-hydroxybenzaldehyde]
Conditions	vapor or sublimation pressure
324.2 K	0.000157 kPa and 0.000151 kPa and 0.000149 kPa
326.16 K	0.000197 kPa and 0.000193 kPa and 0.000187 kPa
328.31 K	0.000252 kPa and 0.000244 kPa and 0.000242 kPa
330.18 K	0.000303 kPa and 0.000296 kPa and 0.000308 kPa
332.16 K	0.000382 kPa and 0.000375 kPa and 0.00037 kPa
334.18 K	0.000477 kPa and 0.000472 kPa and 0.000463 kPa
336.22 K	0.000603 kPa and 0.000602 kPa and 0.000583 kPa
338.34 K	0.000756 kPa and 0.000738 kPa and 0.000728 kPa
340.17 K	0.000926 kPa and 0.000905 kPa and 0.000886 kPa
341.3 K	0.001019 kPa and 0.001005 kPa and 0.000984 kPa
